Type in all cases: functional
For assay [1], the system named is Human immunodeficiency virus 1. In words: Antiviral activity against HIV1-infected in human assessed as decrease in semen viral RNA level measured after 5 hrs post dose.
For assay [2], the system named is Human immunodeficiency virus 1. Kind of assay: Antiviral activity against HIV1.
For assay [3], the system named is Human immunodeficiency virus 1. In words: Antiviral activity against HIV1-infected in human assessed as decrease in plasma viral RNA level measured after 9 hrs post dose.

As for `Cc1nnc(C(=O)NC(C)(C)c2nc(C(=O)NCc3ccc(F)cc3)c(O)c(=O)n2C)o1` [RALTEGRAVIR], the figures for the Activity in assay [1] and in assay [3] were 100 mL⁻¹ and 50 mL⁻¹, respectively. The compound also displayed a Virucidal in assay [2] of 14.6 ng/mL.

The record behind these values is ChEMBL document CHEMBL1212798, “High concentration of raltegravir in semen of HIV-infected men: results from a substudy of the EASIER-ANRS 138 trial” (2010).
